Where two headings read alike, the source gives them in different places.

For assay [1], the system named is 3T3-L1 precursor adipocytes. Briefly: Uptake of glucose by adipocytes ([3H]-2-deoxy-glucose uptake). Format: cell-based. The settings on record: Mus musculus, 100 nM compound, 4 to 5 days culture, 100 nM insulin stimulation, relative to 10 μM rosiglitazone taken as 100%, read-out: Amount of glucose uptake (%). How it is done:
(§1) Test for Uptake of Glucose By Adipocytes and Test for Triglyceride Accumulation in Adipocytes
According to the method of Mukherjee et al. (Mol. Endocrinol, 14, 1425–1433, 2000), a glucose uptake experiment was performed by using cultured cells. 3T3-L1 precursor adipocytes were cultured for 4 to 5 days in the presence of a test compound, and then stimulated with 100 nM insulin, and then the amount of [^3H]-2-deoxy-glucose (2DG) uptake by the cells was measured. The amount of glucose uptake provided after the treatment with 100 nM of each compound was measured, and represented as a relative value based on the amount of glucose uptake provided after the treatment with 10 μM rosiglitazone, which was taken as 100%.

Assay [2] deals with 3T3-L1 precursor adipocytes. Briefly: Triglyceride accumulation in adipocytes. Format: cell-based. The settings on record: Mus musculus, 100 nM compound, 4 to 5 days culture, relative to 10 μM rosiglitazone taken as 100%, read-out: Amount of accumulated triglyceride (%). The protocol: as §1
Further, 3T3-L1 precursor adipocytes were cultured for 4 to 5 days in the presence of a test compound, and then the amount of triglyceride in the cells was measured according to the method of Shibata T et al. (Eur. J. Pharmacol., 364 (2–3), 211–219, 1999). The amount of accumulated triglyceride provided after the treatment with 100 nM of each compound was measured, and represented as a relative value based on the amount of accumulated triglyceride provided after the treatment with 10 μM rosiglitazone, which was taken as 100%.

For the next assay, the system named is db/db mice. Nature of the assay: Hypoglycemic action and triglyceride-decreasing action in db/db mice. Format: in vivo. The settings on record: Mus musculus, 360 h; for inhibition in vivo at 3 mg/kg: 3 mg/kg oral once a day for 2 weeks; for inhibition in vivo at 1 mg/kg: 1 mg/kg oral once a day for 2 weeks; for inhibition in vivo at 10 mg/kg: 10 mg/kg oral once a day for 2 weeks. The protocol: Test for Measuring Hypoglycemic Action and Triglyceride-Decreasing Action in db/db Mice
Each of test compounds was administered once a day for 2 weeks to db/db mice genetically presenting pathological conditions of obesity, hyperglycemia, and hyperlipidemia. Blood was collected from the mice immediately before the start of administration of a test sample or a vehicle on the first day. Plasma glucose levels and triglyceride levels were measured, and the mice were divided into groups so that average glucose levels and triglyceride levels gave no significant value among the groups. All the test samples were suspended in a 0.5% methylcellulose (MC) solution and orally administered. For a vehicle-administered control group, a 0.5% MC solution was orally administered. Blood samples were collected from the mice on the 15th day, and plasma glucose levels and triglyceride levels were measured. A hypoglycemic rate and triglyceride-reducing rate were calculated by using the following equations.

Assay [3] has as its system hamsters fed with high cholesterol diet. Nature of the assay: Total plasma cholesterol and non-HDL cholesterol reducing action in hamster fed high cholesterol diet. Format: in vivo. The settings on record: Mesocricetus auratus, 192 h, hamsters on high cholesterol diet, 10 mg/kg oral once a day for one week, plasma on 8th day. How it is done: Test for Measuring Total Plasma Cholesterol Reducing Action and Non-HDL Cholesterol (VLDL Cholesterol+LDL Cholesterol) Reducing Action in Hamster
A test compound (10 mg/kg) was administered once a day for one week to hamsters fed with high cholesterol diet (CE-2 (Clea Japan)+1% cholesterol+10% coconut oil) for five days. The plasma cholesterol level and the plasma HDL cholesterol level were measured immediately before the start of the administration of the test sample or vehicle on the 1st day, and the hamsters were divided into groups so that the groups gave no significant value of initial levels of the both measurements. Each of the test samples was dissolved in a 0.5% methylcellulose (MC) solution and orally administered. A 0.5% methylcellulose (MC) solution was orally administered to the hamsters as a vehicle control group. A blood sample was collected on the 8th day, and the plasma cholesterol level and the plasma HDL cholesterol level were measured. The total cholesterol reducing rate was obtained by using the following equation. [formula]
Further, non-HDL cholesterol level (LDL cholesterol level+VLDL cholesterol level) was calculated as (Total cholesterol level−HDL cholesterol level), and the reducing rate thereof was calculated by using the following equation. [formula]

The subject of a further assay is Zucker rats. Nature of the assay: Liver triglyceride contents in Zucker rats. Format: in vivo. The settings on record: Rattus norvegicus, 336 h, read-out: Triglyceride reducing rate (%); for inhibition in vivo at 1 mg/kg: 1 mg/kg once a day for 2 weeks. How it is done: Measurement of Liver Triglyceride Contents in Zucker Rats
To Zucker rats, a vehicle (0.5% MC), a compound of the present invention or fenofibrate (Sigma) was administered once a day for 2 weeks. The livers were isolated on the next day of the final administration, and amounts of triglyceride in the livers were determined. Triglyceride was extracted by adding 5 ml of a mixture of hexane and isopropanol (2:1, V/V) to 100 mg of liver, homogenizing the liver using Polytron homogenizer, then sufficiently stirring and centrifuging the homogenate at 2000 g for 10 minutes at room temperature. The amount of triglyceride in the solution layer was measured.

[4] abbreviates: plasma glucose on 15th day vs vehicle, read-out: Hypoglycemic rate (%).
Where [5] appears, read: plasma triglyceride on 15th day vs vehicle, read-out: Triglyceride reducing rate (%).
Where [6] appears, read: non-HDL = total cholesterol - HDL cholesterol, read-out: Non-HDL cholesterol reducing rate (%).
[7] abbreviates: read-out: Total cholesterol reducing rate (%).

As to `C=CCCOC(=O)N(CCCCCCC)CCOc1ccc(CC(OCC)C(=O)O)cc1` (stereo not drawn) [Example 73, 3-(4-{2-[N-(3-butenyloxycarbonyl)-N-heptylamino]ethoxy}phenyl)-2-ethoxypropionic acid], the Emax at 0.1 µM in assay [1] was found to be 99%; in assay [2], 96%. For the same compound, the results for the inhibition in vivo at 3 mg/kg in the assay on db/db mice (setting [4]) and in the assay with db/db mice (setting [5]) were 30% and 43%, respectively. Further, the inhibition in vivo at 10 mg/kg in assay [3] (setting [6]) and in assay [3] (setting [7]) was 45% each time. Moreover, the inhibition in vivo at 1 mg/kg in the assay on Zucker rats worked out at 34%.
For `CCCCCCCN(CCOc1ccc(CC(OCC)C(=O)O)cc1)C(=O)OC` (stereo not drawn) [Example 56, 2-ethoxy-3-{4-[2-(N-heptyl-N-methoxycarbonylamino)ethoxy]phenyl}propionic acid], the Emax at 0.1 µM was 90% in assay [1] and 85% in assay [2]. The inhibition in vivo at 1 mg/kg stood at 26% in the assay with db/db mice (setting [4]), 49% in the assay with db/db mice (setting [5]) and 42% in the assay on Zucker rats. The inhibition in vivo at 10 mg/kg in assay [3] (setting [6]) was determined as 40%; in assay [3] (setting [7]), 39%.
Consider `CCCCCCCN(CCOc1ccc(CC(OC(C)C)C(=O)O)cc1)C(=O)OC` (stereo not drawn) [Example 118, 3-{4-[2-(N-heptyl-N-methoxycarbonylamino)ethoxy]phenyl}-2-isopropoxypropionic acid], for which the results for the Emax at 0.1 µM in assay [1] and in assay [2] were 60% and 55%, respectively. Further, the inhibition in vivo at 1 mg/kg came out at 42% in the assay with db/db mice (setting [4]), 51% with db/db mice (setting [5]) and 47% with Zucker rats. Besides, the values for the inhibition in vivo at 10 mg/kg in assay [3] (setting [6]) and in assay [3] (setting [7]) were 50% and 45%, respectively.
As for `CCCCCCCN(CCOc1ccc(CC(OCC)C(=O)O)cc1)C(=O)OC(C)C` (stereo not drawn) [Example 66, 2-ethoxy-3-{4-[2-(N-heptyl-N-isopropyloxycarbonylamino)ethoxy]phenyl}propionic acid], the figures for the Emax at 0.1 µM in assay [1] and in assay [2] were 95% and 80%, respectively. Further, the inhibition in vivo at 1 mg/kg with db/db mice (setting [4]) came out at 32%; with db/db mice (setting [5]), 57%; in the assay with Zucker rats, 44%. For the same compound, the inhibition in vivo at 10 mg/kg in assay [3] (setting [6]) was 42%; in assay [3] (setting [7]), 40%.
Turning to `CCCCOCCN(CCOc1ccc(CC(OCC)C(=O)O)cc1)C(=O)OC(C)C` (stereo not drawn) [Example 122, 3-(4-{2-[N-(2-butoxyethyl)-N-isopropoxycarbonylamino]ethoxy}phenyl)-2-ethoxypropionic acid], the Emax at 0.1 µM is 92% in assay [1] and 90% in assay [2]. The inhibition in vivo at 3 mg/kg in the assay with db/db mice (setting [4]) worked out at 14%; in the assay on db/db mice (setting [5]) it was 21%. In addition, the inhibition in vivo at 10 mg/kg is 9% in assay [3] (setting [6]) and 10% in assay [3] (setting [7]). Moreover, the inhibition in vivo at 1 mg/kg in the assay with Zucker rats turned out to be 2%.
Turning to `CCOC(Cc1ccc(OCCN(CCOc2ccccc2)C(=O)OC(C)C)cc1)C(=O)O` (stereo not drawn) [Example 92, 2-ethoxy-3-(4-{2-[N-isopropoxycarbonyl-N-(2-phenoxyethyl)amino]ethoxy}phenyl)propionic acid], the values for the Emax at 0.1 µM in assay [1] and in assay [2] were 90% and 92%, respectively. The inhibition in vivo at 3 mg/kg with db/db mice (setting [4]) turned out to be 4%; with db/db mice (setting [5]), 12%. The inhibition in vivo at 10 mg/kg came to 10% in assay [3] (setting [6]) and 8% in assay [3] (setting [7]). Moreover, the inhibition in vivo at 1 mg/kg with Zucker rats was 2%.
On to `CCCCCCCN(CCOc1ccc(CC(OCC)C(=O)O)cc1)C(=O)OCC` (stereo not drawn) [Example 75, 2-ethoxy-3-{4-[2-(N-ethoxycarbonyl-N-heptylamino)ethoxy]phenyl}propionic acid], for which the Emax at 0.1 µM in assay [1] and in assay [2] was 98% in each case. Further, the inhibition in vivo at 3 mg/kg in the assay on db/db mice (setting [4]) was determined as 38%; with db/db mice (setting [5]), 32%. Moreover, the inhibition in vivo at 10 mg/kg in assay [3] (setting [6]) is 46%; in assay [3] (setting [7]), 48%. Further, in the assay on Zucker rats, the inhibition in vivo at 1 mg/kg worked out at 32%.
Turning to `C#CCOC(=O)N(CCCCCCC)CCOc1ccc(CC(OCC)C(=O)O)cc1` (stereo not drawn) [Example 67, 2-ethoxy-3-(4-{2-[N-heptyl-N-(2-propynyloxycarbonyl)amino]ethoxy}phenyl)propionic acid], the Emax at 0.1 µM came out at 91% in assay [1] and 92% in assay [2]. In addition, the inhibition in vivo at 1 mg/kg came to 17% with db/db mice (setting [4]), 26% with db/db mice (setting [5]) and 47% in the assay with Zucker rats. In addition, the inhibition in vivo at 10 mg/kg in assay [3] (setting [6]) came to 32%; in assay [3] (setting [7]), 34%.
`CCCCCCCN(CCOc1ccc(CC(OCC)C(=O)OCC)cc1)C(=O)OCC(F)(F)F` (stereo not drawn) [Example 96, 2-ethoxy-3-(4-{2-[N-heptyl-N-(2,2,2-trifluoroethoxycarbonyl)amino]ethoxy}phenyl)propionic acid ethyl ester]: the figures for the Emax at 0.1 µM in assay [1] and in assay [2] were 85% and 80%, respectively. Also, the figures for the inhibition in vivo at 3 mg/kg in the assay on db/db mice (setting [4]) and with db/db mice (setting [5]) were 38% and 31%, respectively. For the same compound, the inhibition in vivo at 10 mg/kg in assay [3] (setting [6]) is 23%; in assay [3] (setting [7]), 24%. Besides, in the assay on Zucker rats, the inhibition in vivo at 1 mg/kg worked out at 39%.
As for `CCCCCCCN(CCOc1ccc(CC(OCC)C(=O)O)cc1)C(=O)Nc1ccc(F)cc1F` (stereo not drawn) [Example 2, 3-(4-{2-[3-(2,4-difluorophenyl)-1-heptylureido]ethoxy}phenyl)-2-ethoxypropionic acid], the figures for the Emax at 0.1 µM in assay [1] and in assay [2] were 95% and 90%, respectively. For the same compound, the inhibition in vivo at 10 mg/kg with db/db mice (setting [4]) worked out at 34%; with db/db mice (setting [5]), 53%; in assay [3] (setting [6]) it was 29%; in assay [3] (setting [7]), 30%; with Zucker rats (10 mg/kg once a day for 2 weeks), 19%.
On to `CCCCCCCN(CCOc1ccc(CC(OCCC)C(=O)O)cc1)C(=O)OC` (stereo not drawn) [Example 120, 3-{4-[2-(N-heptyl-N-methoxycarbonylamino)ethoxy]phenyl}-2-propoxypropionic acid], for which the figures for the Emax at 0.1 µM in assay [1] and in assay [2] were 90% and 88%, respectively. The inhibition in vivo at 1 mg/kg is 39% in the assay with db/db mice (setting [4]), 48% in the assay with db/db mice (setting [5]) and 28% in the assay on Zucker rats. Moreover, the inhibition in vivo at 10 mg/kg came to 25% in assay [3] (setting [6]) and 28% in assay [3] (setting [7]).
As for `CC(C)OC(=O)C(C)(C)Oc1ccc(C(=O)c2ccc(Cl)cc2)cc1` [Fenofibrate, fenofibrate, reference compound], the inhibition in vivo at 100 mg/kg in the assay on Zucker rats (100 mg/kg once a day for 2 weeks) stood at 22%.

The values are drawn from US7015345B2, “Propionic acid derivatives” (Asahi Kasei Pharma Corporation, priority 2002, dated 2006).
